From patent US8946420B2, “Neuromodulatory compounds” (Map Pharmaceuticals, Inc., priority 2011, dated 2015) come the findings set out here.

Assay [1] addresses Recombinant human serotonin receptor 5-HT1B (Homo sapiens, UniProt P28222). In words: GTPγS functional assay. Format: biochemical. Particulars: read-out: 5-HT1B agonism, EC50.
Assay [2] has as its target T1, Recombinant human serotonin receptor 5-HT1A (Homo sapiens, UniProt P08908).
T1 sequence (P08908 1-422): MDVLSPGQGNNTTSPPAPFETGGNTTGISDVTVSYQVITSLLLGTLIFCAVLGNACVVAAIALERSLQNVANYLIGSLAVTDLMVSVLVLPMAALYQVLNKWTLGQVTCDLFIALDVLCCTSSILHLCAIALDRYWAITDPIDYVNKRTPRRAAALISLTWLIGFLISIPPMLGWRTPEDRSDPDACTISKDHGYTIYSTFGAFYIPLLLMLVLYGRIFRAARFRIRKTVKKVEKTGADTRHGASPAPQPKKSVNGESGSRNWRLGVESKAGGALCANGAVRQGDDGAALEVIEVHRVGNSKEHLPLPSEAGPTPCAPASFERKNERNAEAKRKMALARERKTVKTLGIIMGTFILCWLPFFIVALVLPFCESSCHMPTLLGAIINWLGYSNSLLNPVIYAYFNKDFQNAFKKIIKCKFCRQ
As to the kind of experiment: GTPγS functional assay. The note with it: in words. Type of assay: biochemical.

The target in assay [3] is T2, Recombinant human serotonin 5-HT2A receptor (Homo sapiens, UniProt P28223).
T2 construct: expressed in transfected cells; host or cells: CHO-K1 cells co-expressing mitochondrial apoaequorin
T2 sequence (P28223 whole entry): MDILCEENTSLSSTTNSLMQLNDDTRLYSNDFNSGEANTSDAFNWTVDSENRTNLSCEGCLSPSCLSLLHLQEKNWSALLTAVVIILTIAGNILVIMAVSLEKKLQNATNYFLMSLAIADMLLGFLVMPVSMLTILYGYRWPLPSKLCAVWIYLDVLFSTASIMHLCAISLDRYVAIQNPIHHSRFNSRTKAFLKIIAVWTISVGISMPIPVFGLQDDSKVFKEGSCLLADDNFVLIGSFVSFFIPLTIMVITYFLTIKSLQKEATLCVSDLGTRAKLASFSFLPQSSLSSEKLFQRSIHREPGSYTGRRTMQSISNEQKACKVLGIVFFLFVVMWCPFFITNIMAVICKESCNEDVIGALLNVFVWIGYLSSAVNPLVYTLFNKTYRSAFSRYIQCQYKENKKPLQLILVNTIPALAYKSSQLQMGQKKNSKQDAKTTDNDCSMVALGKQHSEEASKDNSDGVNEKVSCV
As to the kind of experiment: Aequorin assay, receptor agonist/antagonist activity, CHO-K1 cells. Type of assay: cell-based. The method, then: (§1) Compound 5A was synthesized as described above and assayed for receptor activity against a panel of dopaminergic and serotoninergic receptors. Recombinant human receptors serotonin 5-HT2A, 5-HT2B were expressed in CHO-K1 cells and activity (receptor agonist/antagonist activity) was assayed using an Aequorin assay (coexpression of mitochondrial apoaequorin) and Compound 5a at a concentration of 0.10 nM to 20,000 nM for agonist activity and 0.005 nM to 10,000 nM for antagonist activity. […]. The preserved 5-HT2B antagonism activity is hypothesized to a decrease or minimized occurrence of fibrosis (cardiac and non-cardiac) as it is thought that 5-HT2B agonism is responsible for this undesirable side-effect in other iso-ergoline compounds. […]. A decreased agonist activity towards the D3 receptor by Compound 5a is likely to produce minimal or decreased hallucinogenic effects. […].

The target of assay [4] is T3, Recombinant human serotonin 5-HT2B receptor (Homo sapiens, UniProt P41595).
T3 construct: expressed in transfected cells; host or cells: CHO-K1 cells co-expressing mitochondrial apoaequorin
T3 sequence (P41595 whole entry): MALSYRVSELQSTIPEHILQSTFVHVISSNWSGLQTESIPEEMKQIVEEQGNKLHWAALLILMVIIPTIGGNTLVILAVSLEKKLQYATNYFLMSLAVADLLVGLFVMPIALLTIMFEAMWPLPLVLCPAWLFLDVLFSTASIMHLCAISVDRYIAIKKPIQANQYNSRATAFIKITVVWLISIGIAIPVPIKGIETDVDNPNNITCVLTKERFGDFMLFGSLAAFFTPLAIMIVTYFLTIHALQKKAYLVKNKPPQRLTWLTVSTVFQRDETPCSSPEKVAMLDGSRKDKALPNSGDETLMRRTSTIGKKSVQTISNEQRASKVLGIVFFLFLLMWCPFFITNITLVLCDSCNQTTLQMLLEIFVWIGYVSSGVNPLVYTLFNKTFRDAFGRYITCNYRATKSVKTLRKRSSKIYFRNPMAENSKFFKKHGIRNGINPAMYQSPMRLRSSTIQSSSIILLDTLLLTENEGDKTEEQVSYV
The description is as above. Format: cell-based. The method, then:
as §1

Assay [5] concerns the target Recombinant human dopaminergic receptor D2L (Homo sapiens, UniProt P14416). As to the kind of experiment: GTPγS functional assay. Particulars: in words. Format: biochemical.
Assay [6] concerns the target Recombinant human dopaminergic receptor D3 (Homo sapiens, UniProt P35462). As to the kind of experiment: GTPγS functional assay. Format: biochemical.
The target in assay [7] is Recombinant human serotonin receptor 5-HT1D (Homo sapiens, UniProt P28221). As to the kind of experiment: GTPγS functional assay. Format: biochemical.
Recombinant human serotonin receptor 5-HT1D, sequence (P28221 whole entry): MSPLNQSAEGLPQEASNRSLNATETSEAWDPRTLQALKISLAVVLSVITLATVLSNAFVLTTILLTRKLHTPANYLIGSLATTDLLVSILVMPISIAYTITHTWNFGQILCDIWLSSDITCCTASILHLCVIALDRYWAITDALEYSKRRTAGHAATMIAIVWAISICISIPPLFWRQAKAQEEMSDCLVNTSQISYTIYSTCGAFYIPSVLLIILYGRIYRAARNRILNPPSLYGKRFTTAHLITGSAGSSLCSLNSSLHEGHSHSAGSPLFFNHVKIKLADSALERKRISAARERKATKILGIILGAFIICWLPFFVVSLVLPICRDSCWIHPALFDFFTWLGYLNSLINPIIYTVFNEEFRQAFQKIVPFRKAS

SMILES strings stand for the structures.

Recombinant human dopaminergic receptor D3, sequence (P35462 whole entry): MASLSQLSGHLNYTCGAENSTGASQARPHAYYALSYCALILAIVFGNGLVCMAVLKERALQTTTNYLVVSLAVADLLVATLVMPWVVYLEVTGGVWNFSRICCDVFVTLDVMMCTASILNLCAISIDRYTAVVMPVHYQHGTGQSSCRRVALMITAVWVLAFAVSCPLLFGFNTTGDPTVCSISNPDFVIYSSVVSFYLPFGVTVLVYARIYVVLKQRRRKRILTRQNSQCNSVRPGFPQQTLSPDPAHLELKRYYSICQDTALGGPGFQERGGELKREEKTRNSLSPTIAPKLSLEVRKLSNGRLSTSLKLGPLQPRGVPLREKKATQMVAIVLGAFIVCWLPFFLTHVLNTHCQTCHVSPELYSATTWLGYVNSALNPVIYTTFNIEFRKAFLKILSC
Recombinant human serotonin receptor 5-HT1B, sequence (P28222 whole entry): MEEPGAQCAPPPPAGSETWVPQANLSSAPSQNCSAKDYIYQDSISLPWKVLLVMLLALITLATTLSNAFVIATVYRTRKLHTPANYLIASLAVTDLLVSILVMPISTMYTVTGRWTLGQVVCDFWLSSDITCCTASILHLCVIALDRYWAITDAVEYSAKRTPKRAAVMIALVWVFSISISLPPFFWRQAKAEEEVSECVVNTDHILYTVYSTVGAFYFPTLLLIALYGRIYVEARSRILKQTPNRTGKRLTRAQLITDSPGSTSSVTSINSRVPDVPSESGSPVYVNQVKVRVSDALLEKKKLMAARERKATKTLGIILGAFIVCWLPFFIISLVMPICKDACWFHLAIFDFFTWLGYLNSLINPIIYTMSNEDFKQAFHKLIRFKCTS
Recombinant human dopaminergic receptor D2L, sequence (P14416 whole entry): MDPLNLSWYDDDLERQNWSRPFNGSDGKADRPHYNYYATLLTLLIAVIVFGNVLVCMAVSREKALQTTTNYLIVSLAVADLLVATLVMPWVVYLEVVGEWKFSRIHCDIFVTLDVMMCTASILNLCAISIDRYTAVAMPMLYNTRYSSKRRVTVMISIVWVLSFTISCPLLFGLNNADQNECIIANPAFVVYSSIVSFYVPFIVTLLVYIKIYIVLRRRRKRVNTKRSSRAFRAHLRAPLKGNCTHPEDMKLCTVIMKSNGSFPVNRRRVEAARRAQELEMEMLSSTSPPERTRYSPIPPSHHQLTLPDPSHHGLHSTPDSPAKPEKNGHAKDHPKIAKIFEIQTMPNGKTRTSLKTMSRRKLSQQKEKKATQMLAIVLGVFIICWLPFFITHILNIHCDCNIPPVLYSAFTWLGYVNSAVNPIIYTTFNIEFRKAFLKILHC

One may read the EC50 as the concentration needed to bring the measured effect to its halfway point. In the case of `CN1C[C@@H](NC(=O)N(CC(F)(F)F)CC(F)(F)F)C=C2c3cccc4[nH]cc(c34)C[C@H]21` [Compound 5A], the EC50 in assay [1] was 287 nM; in assay [3] (agonist mode, 0.10 nM to 20,000 nM), 5020 nM; in assay [6] (0.005 nM to 10,000 nM, read-out: agonist activity towards the dopaminergic D3 receptor, EC50), 27 nM; in assay [7] (read-out: 5-HT1D agonism, EC50) it was 15 nM. The “agonistic activity towards the 5-HT1A receptor” value in assay [2] is listed as “weak/moderate agonistic activity”. Besides, the “5-HT2A receptor agonist activity” value in assay [3] (in words, compared to lisuride) is given as “weak 5-HT2A receptor agonist activity”. Moreover, in assay [4] (antagonist mode, 0.005 nM to 10,000 nM, read-out: 5-HT2B antagonism activity, 1050), the IC50 was 190 nM. Moreover, the 5-HT2B receptor activity in assay [4] (in words) was 5-HT2B antagonist. For the same compound, in assay [5], the “D2L agonist activity (Emax) compared to lisuride” value is given as “comparable D2L agonist activity (Emax)”. Besides, the “dopaminergic receptor D3 agonism” value in assay [6] (in words, compared to lisuride) is recorded as “weaker dopaminergic receptor D3agonism”. The “selectivity for 5-HT1D to 5-HT1B” value in assay [7] (ratio of EC50 values) turned out to be 20 fold.
